Laboratory results taken from patent publication US5334728A (The Trustees of The University of Pennsylvania, priority 1992, dated 1994).
Where “and” joins values, the source holds several entries; their conditions need not be identical. Equal values may be shown once.

Legend:
dopamine D-2 receptor [1] = molecular target: T1, dopamine D-2 receptor (Rattus norvegicus, UniProt P61169); experiment: Saturation binding of [^125 I]IBF to rat striatal homogenate in vitro
T1 construct: Striatal tissues were excised, pooled and homogenized in 100 volumes (w/v) of ice-cold Tris-HCl buffer; from tissue; host or cells: rat striatum (male Sprague-Dawley), twice-centrifuged membrane homogenate
T1 sequence (P61169 whole entry): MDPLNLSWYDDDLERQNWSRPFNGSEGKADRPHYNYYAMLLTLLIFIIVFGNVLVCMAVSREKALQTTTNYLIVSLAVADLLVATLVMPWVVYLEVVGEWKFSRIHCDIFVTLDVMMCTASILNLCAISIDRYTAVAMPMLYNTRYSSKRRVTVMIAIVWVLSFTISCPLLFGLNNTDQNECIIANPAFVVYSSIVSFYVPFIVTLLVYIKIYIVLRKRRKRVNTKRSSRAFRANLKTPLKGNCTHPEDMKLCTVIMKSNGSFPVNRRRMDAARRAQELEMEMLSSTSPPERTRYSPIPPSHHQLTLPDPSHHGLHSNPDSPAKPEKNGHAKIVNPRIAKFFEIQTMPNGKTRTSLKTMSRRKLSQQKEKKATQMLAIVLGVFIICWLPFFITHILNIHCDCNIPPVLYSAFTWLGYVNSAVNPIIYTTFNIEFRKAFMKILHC
Method: (§1) Male Sprague-Dawley rats (200-250 g) were decapitated, and the brains were removed and placed in ice. Striatal tissues were excised, pooled and homogenized in 100 volumes (w/v) of ice-cold Tris-HCl buffer (50 mM), pH 7.4. The homogenates were centrifuged at 20,000× g for 20 min. The resultant pellets were rehomogenized in the same buffer and centrifuged again. The final pellets were resuspended in assay buffer containing: 50 mM Tris buffer pH 7.4, 120 mM NaCl, 5 mM KCl, 2 mM CaCl2 and 1 mM MgCl2 and kept at -20° C. for the following binding assay.
(§2) The binding assays were performed by incubating 50 μl of tissue preparations containing 40-60 μg of protein with appropriate amounts of l-125 labeled ligand and competitors in a total volume of 0.2 ml of the assay buffer. After an incubation period of 15 min at 37° C. (with stirring), the samples were rapidly filtered in the cell harvester (Brandel M-24R) under vacuum through Whatman GF/B glass fiber filters pretreated with 0.2% protamine base and washed with 3×5 ml of cold (4° C.) 50 mM Tris-HCl buffer, pH 7.4. […] The filters were counted in a gamma counter (Beckman 5500) at an efficiency of 70%.

dopamine D-2 receptor [2] = molecular target: T1, dopamine D-2 receptor; experiment: Competition binding using [^125 I]IBF, rat striatal membranes
Method: *0.15-0.30 nM [^125 I]IBF was incubated in the presence of the
indicated compounds in 7-11 concentrations and of membrane preparation
from rat striatum. Each value represents the mean ± SEM of three to
as §1, §2

[3] = Biodistribution in rats after IV injection; type: in vivo, rat
Method: Male Sprague Dawley rats (225-300 g), which were allowed free access to food and water, were used for in vivo biodistribution study. While under halothane anesthesia, 0.2 ml of a saline solution containing [^125 l]IBF, 21, (8-10 μCi) was injected directly into the femoral vein, and the rats were sacrificed at various time points postinjection by cardiac excision under halothane anesthesia. The organs of interest were removed, weighed and the radioactivity was counted using a Beckman gamma automatic counter (Model 4000). The percent dose per organ was calculated by a comparison of the tissue counts to suitably diluted aliquots of the injected material. Total activities of blood and muscle were calculated assuming that they are 7% and 40% of total body weight, respectively.

[4] = system: CNS D-2 dopamine receptors; experiment: Regional brain distribution in rats after iv injection; type: in vivo; conditions: rat; for striatum/cerebellum (ST/CB) ratio: % dose/gram ratio
Excerpt: FIG. 2 is a bar graph showing ratios (based on % dose/gram) of regional cerebral uptake of [^125 I]IBF (CX: cortex, ST: striatum, CB: cerebellum, HP: hippocampus).
(§3) (See FIG. 2). This type of profound increase in target to nontarget ratio versus time was not observed for the other two regions (hippocampus and cortex) (FIG. 2). […] The data have been further confirmed by an in vivo imaging study of a monkey.
Regional brain distribution in rats was obtained after an iv injection of [^125 l]IBF, 21. By dissecting, weighing and counting samples from different brain regions (cortex, striatum, hippocampus and cerebellum), % dose/gram of samples was calculated by comparing the sample counts with the counts of the diluted initial dose. The uptake ratio of each region was obtained by dividing % dose/gram of each region with that ot the cerebellum.

[5] = system: CNS D-2 dopamine receptors; experiment: In vivo planar imaging of a monkey; conditions: planar images
Excerpt: as §3

[6] = system: CNS D-2 dopamine receptors; experiment: Ex vivo autoradiography (preliminary); type: in vivo; conditions: preliminary study
Excerpt: as §3

[7] = 2 min, IV, average of 3 rats ± SD
[8] = 15 min, IV, average of 3 rats ± SD
[9] = 30 min, IV, average of 3 rats ± SD
[10] = 60 min, IV, average of 3 rats ± SD
[11] = 120 min, IV, average of 3 rats ± SD

In the case of `CCN1CCC[C@H]1CNC(=O)c1cc([125I])cc2c1OCC2` [[^125 I]IBF], the “specific binding saturability” value (dopamine D-2 receptor [1]) is reported as “saturable”, the Kd (dopamine D-2 receptor [1]; rat striatal homogenate in vitro, read-out: Kd, specific binding) is reported as 0.106 ± 0.015 nM and the “nonspecific binding” value (dopamine D-2 receptor [1]; saturation curve, FIG. 1) is reported as “extremely low nonspecific binding”. For the same compound, the “nonspecific binding at Kd” value (dopamine D-2 receptor [1]; saturation curve, FIG. 1) was 5%, the “selectivity of binding to the dopamine D-2 receptor” value (dopamine D-2 receptor [2]) was “binds specifically and selectively to the dopamine D-2 receptor” and the Blood uptake [3, 7] was 3.50 ± 0.22 % Dose/Organ. The Brain uptake [3, 7] was 0.98 ± 0.15 % Dose/Organ and 0.98 % Dose/Organ, the Brain/Blood ratio [3, 7] was 2.64 ± 0.32 % dose/gram ratio and the Heart uptake [3, 7] was 0.81 ± 0.25 % Dose/Organ. For the same compound, the Kidney uptake [3, 7] was 7.58 ± 0.66 % Dose/Organ, the Liver uptake [3, 7] was 16.32 ± 4.00 % Dose/Organ and the Lung uptake [3, 7] was 6.14 ± 1.19 % Dose/Organ and 6.14 % Dose/Organ. It also gave a Muscle uptake [3, 7] of 11.25 ± 2.62 % Dose/Organ, a Skin uptake [3, 7] of 8.54 ± 1.21 % Dose/Organ and a Spleen uptake [3, 7] of 0.96 ± 0.08 % Dose/Organ. It also gave a Thyroid uptake [3, 7] of 0.06 ± 0.02 % Dose/Organ, a Blood uptake [3, 8] of 1.80 ± 0.31 % Dose/Organ and a Brain uptake [3, 8] of 0.54 ± 0.06 % Dose/Organ. For the same compound, the Brain/Blood ratio [3, 8] was 3.01 ± 0.91 % dose/gram ratio, the Heart uptake [3, 8] was 0.20 ± 0.03 % Dose/Organ and the Kidney uptake [3, 8] was 2.92 ± 0.30 % Dose/Organ. For the same compound, the Liver uptake [3, 8] was 16.16 ± 7.54 % Dose/Organ, the Lung uptake [3, 8] was 1.85 ± 0.33 % Dose/Organ and the Muscle uptake [3, 8] was 14.36 ± 1.29 % Dose/Organ. It also gave a Skin uptake [3, 8] of 8.46 ± 0.56 % Dose/Organ, a Spleen uptake [3, 8] of 0.58 ± 0.08 % Dose/Organ and a Thyroid uptake [3, 8] of 0.03 ± 0.004 % Dose/Organ. For the same compound, the Blood uptake [3, 9] was 1.26 ± 0.10 % Dose/Organ, the Brain uptake [3, 9] was 0.30 ± 0.05 % Dose/Organ and the Brain/Blood ratio [3, 9] was 2.26 ± 0.33 % dose/gram ratio. For the same compound, the Heart uptake [3, 9] was 0.11 ± 0.01 % Dose/Organ, the Kidney uptake [3, 9] was 1.58 ± 0.46 % Dose/Organ and the Liver uptake [3, 9] was 11.59 ± 0.93 % Dose/Organ. For the same compound, the Lung uptake [3, 9] was 0.82 ± 0.08 % Dose/Organ and 0.82 % Dose/Organ, the Muscle uptake [3, 9] was 9.00 ± 1.66 % Dose/Organ and the Skin uptake [3, 9] was 5.34 ± 0.17 % Dose/Organ. It also gave a Spleen uptake [3, 9] of 0.31 ± 0.03 % Dose/Organ, a Thyroid uptake [3, 9] of 0.02 ± 0.004 % Dose/Organ and a Blood uptake [3, 10] of 0.98 ± 0.11 % Dose/Organ. The Brain uptake [3, 10] was 0.17 ± 0.02 % Dose/Organ and 0.17 % Dose/Organ, the Brain/Blood ratio [3, 10] was 1.90 ± 0.29 % dose/gram ratio and the Heart uptake [3, 10] was 0.05 ± 0.002 % Dose/Organ. For the same compound, the Kidney uptake [3, 10] was 1.01 ± 0.01 % Dose/Organ, the Liver uptake [3, 10] was 9.84 ± 1.50 % Dose/Organ and the Lung uptake [3, 10] was 0.37 ± 0.10 % Dose/Organ. For the same compound, the Muscle uptake [3, 10] was 4.97 ± 0.56 % Dose/Organ, the Skin uptake [3, 10] was 2.38 ± 0.17 % Dose/Organ and the Spleen uptake [3, 10] was 0.09 ± 0.01 % Dose/Organ. For the same compound, the Thyroid uptake [3, 10] was 0.02 ± 0.01 % Dose/Organ and 0.02 % Dose/Organ, the Blood uptake [3, 11] was 0.53 ± 0.02 % Dose/Organ and the Brain uptake [3, 11] was 0.07 ± 0.006 % Dose/Organ. The Brain/Blood ratio [3, 11] was 1.53 ± 0.12 % dose/gram ratio, the Heart uptake [3, 11] was 0.02 ± 0.001 % Dose/Organ and the Kidney uptake [3, 11] was 0.68 ± 0.32 % Dose/Organ. For the same compound, the Liver uptake [3, 11] was 3.95 ± 0.31 % Dose/Organ, the Muscle uptake [3, 11] was 2.30 ± 0.22 % Dose/Organ and the Skin uptake [3, 11] was 1.18 ± 0.18 % Dose/Organ. For the same compound, the Spleen uptake [3, 11] was 0.03 ± 0.007 % Dose/Organ, the Thyroid uptake [3, 11] was 0.08 ± 0.03 % Dose/Organ and the “in vivo deiodination” value ([3]; from thyroid uptake at one hour postinjection) was “little or no in vivo deiodination”. The “in vivo stability compared with [^125 I]IBZM” value ([3]; rat, in vivo) was “better in vivo stability”, the “lung clearance” value ([3]; rats) was “rapidly cleared” and the “Liver uptake” value ([3]; rats, first hour to two hours postinjection) was “remained high throughout the first hour and gradually declined at two hours postinjection”. For the same compound, the “Brain uptake” value ([3]; rats, intravenous) was “good brain uptake in rats”, the “striatum/cerebellum (ST/CB) ratio” value ([4]; 2 min) was 2.0 and the “striatum/cerebellum (ST/CB) ratio” value ([4]; 15 min) was 3.8. The “striatum/cerebellum (ST/CB) ratio” value ([4]; 30 min) was 6.2, the “striatum/cerebellum (ST/CB) ratio” value ([4]; 60 min) was 18 and the “striatum/cerebellum (ST/CB) ratio” value ([4]; 120 min) was 48. For the same compound, the “increase in target to nontarget ratio versus time, hippocampus and cortex” value ([4]; hippocampus and cortex) was “not observed”, the “retention in the striatum” value [4] was “prolonged retention” and the “uptake and retention in the basal ganglia” value [5] was “high uptake and retention in the basal ganglia”. The “striatal uptake and cerebellar activity” value [6] was “high striatal uptake and low cerebellar activity”.
